In ChEMBL document CHEMBL1201862, “PubChem BioAssay data set” (2004):
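Compound exposure: 48 hours, 5 concentrations, 96-well plates. GI50 is the concentration that inhibits growth by half.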 Active and inactive are the calls of the source. No stated cut-off is given here; in the data, active = GI50 up to about 1.1 µM and inactive = higher.

Experiments:
Assay in all cases: NCI-60 cell line screen, 48 h
[1] = test system: 786-0
[2] = test system: A498
[3] = test system: A549
[4] = test system: ACHN
[5] = test system: BT-549
[6] = test system: CAKI-1
[7] = test system: CCRF-CEM
[8] = test system: COLO 205
[9] = test system: DU-145
[10] = test system: EKVX
[11] = test system: HCT-116
[12] = test system: HCT-15
[13] = test system: HL-60
[14] = test system: HOP-62
[15] = test system: HOP-92
[16] = test system: HT-29
[17] = test system: Hs-578T
[18] = test system: IGROV-1
[19] = test system: K562
[20] = test system: KM12
[21] = test system: LOX IMVI
[22] = test system: M14
[23] = test system: MCF7
[24] = test system: MDA-MB-231
[25] = test system: MDA-MB-435
[26] = test system: MDA-N
[27] = test system: MOLT-4
[28] = test system: Malme-3M
[29] = test system: NCI-H226
[30] = test system: NCI-H23
[31] = test system: NCI-H460
[32] = test system: NCI/ADR-RES
[33] = test system: OVCAR-3
[34] = test system: OVCAR-4
[35] = test system: OVCAR-5
[36] = test system: OVCAR-8
[37] = test system: PC-3
[38] = test system: RPMI-8226
[39] = test system: RXF 393
[40] = test system: SF-268
[41] = test system: SF-295
[42] = test system: SF-539
[43] = test system: SK-MEL-28
[44] = test system: SK-MEL-2
[45] = test system: SK-MEL-5
[46] = test system: SK-OV-3
[47] = test system: SN12C
[48] = test system: SNB-19
[49] = test system: SNB-75
[50] = test system: SW-620
[51] = test system: T47D
[52] = test system: TK-10
[53] = test system: U-251
[54] = test system: UACC-257
[55] = test system: UACC-62
[56] = test system: UO-31
[57] = test system: HCC 2998
[58] = test system: SR
[59] = test system: NCI-H522

CCCCOC(=O)C1CN2C(=NC1(C(F)(F)F)C(F)(F)F)Sc1ccccc12 (centres undefined)
GI50 [1]: 64.3 µM (inactive)
GI50 [2]: > 100 µM (inactive)
GI50 [3]: 40.5 µM (inactive)
GI50 [4]: 30.3 µM (inactive)
GI50 [5]: 26.1 µM (inactive)
GI50 [6]: > 100 µM (inactive)
GI50 [7]: 30.2 µM (inactive)
GI50 [8]: 31.8 µM (inactive)
GI50 [9]: 67.1 µM (inactive)
GI50 [10]: 37.2 µM (inactive)
GI50 [11]: 33 µM (inactive)
GI50 [12]: 45.6 µM
GI50 [13]: 16.6 µM (inactive)
GI50 [14]: 82.4 µM (inactive)
GI50 [15]: 72.4 µM (inactive)
GI50 [16]: 22.5 µM (inactive)
GI50 [17]: 30.6 µM (inactive)
GI50 [18]: 11 µM (inactive)
GI50 [19]: 12.2 µM (inactive)
GI50 [20]: 27.2 µM (inactive)
GI50 [21]: 43.5 µM (inactive)
GI50 [22]: 44.1 µM (inactive)
GI50 [23]: 32.1 µM (inactive)
GI50 [24]: > 100 µM (inactive)
GI50 [25]: > 10 µM (inactive)
GI50 [26]: 60.3 µM (inactive)
GI50 [27]: 23 µM (inactive)
GI50 [28]: 53.1 µM (inactive)
GI50 [29]: 27 µM (inactive)
GI50 [30]: 24.5 µM (inactive)
GI50 [31]: 34.9 µM (inactive)
GI50 [32]: 27 µM (inactive)
GI50 [33]: 58.5 µM (inactive)
GI50 [34]: 45.5 µM (inactive)
GI50 [35]: > 100 µM (inactive)
GI50 [36]: 43.6 µM (inactive)
GI50 [37]: 16.2 µM (inactive)
GI50 [38]: 26.1 µM (inactive)
GI50 [39]: 24.1 µM (inactive)
GI50 [40]: 33.8 µM (inactive)
GI50 [41]: 36.9 µM (inactive)
GI50 [42]: 44.1 µM (inactive)
GI50 [43]: 74.5 µM (inactive)
GI50 [44]: 34.8 µM (inactive)
GI50 [45]: 20 µM (inactive)
GI50 [46]: 78.5 µM (inactive)
GI50 [47]: 98.4 µM (inactive)
GI50 [48]: 96.2 µM (inactive)
GI50 [49]: 35.1 µM (inactive)
GI50 [50]: 49.5 µM (inactive)
GI50 [51]: 16.8 µM (inactive)
GI50 [52]: 30.6 µM (inactive)
GI50 [53]: 41.4 µM (inactive)
GI50 [54]: 36.1 µM (inactive)
GI50 [55]: 47.1 µM (inactive)
GI50 [56]: 19.2 µM (inactive)

CC(=O)O[C@H]1CCC2[C@@H]3CCC4Cc5nc6c(nc5C[C@]4(C)C3CC[C@@]21C)CC1CC[C@@H]2C(CC[C@@]3(C)C2CC[C@@H]3C(C)CCCC(C)C)[C@@]1(C)C6 (some centres undefined)
GI50 [1]: > 100 µM (inactive)
GI50 [3]: > 100 µM (inactive)
GI50 [4]: > 100 µM (inactive)
GI50 [5]: > 100 µM (inactive)
GI50 [7]: > 100 µM (inactive)
GI50 [8]: > 100 µM (inactive)
GI50 [9]: > 100 µM (inactive)
GI50 [10]: > 100 µM (inactive)
GI50 [11]: > 100 µM (inactive)
GI50 [12]: > 100 µM
GI50 [13]: > 100 µM (inactive)
GI50 [14]: > 100 µM (inactive)
GI50 [15]: > 100 µM (inactive)
GI50 [16]: > 100 µM (inactive)
GI50 [17]: > 100 µM (inactive)
GI50 [18]: > 100 µM (inactive)
GI50 [19]: > 100 µM (inactive)
GI50 [20]: > 100 µM (inactive)
GI50 [21]: > 100 µM (inactive)
GI50 [22]: > 100 µM (inactive)
GI50 [23]: > 100 µM (inactive)
GI50 [24]: > 100 µM (inactive)
GI50 [25]: > 100 µM (inactive)
GI50 [26]: > 100 µM (inactive)
GI50 [27]: > 100 µM (inactive)
GI50 [28]: > 100 µM (inactive)
GI50 [29]: > 100 µM (inactive)
GI50 [30]: > 100 µM (inactive)
GI50 [31]: > 100 µM (inactive)
GI50 [32]: > 100 µM (inactive)
GI50 [33]: > 100 µM (inactive)
GI50 [34]: > 100 µM (inactive)
GI50 [35]: > 100 µM (inactive)
GI50 [36]: > 100 µM (inactive)
GI50 [37]: > 100 µM (inactive)
GI50 [38]: > 100 µM (inactive)
GI50 [39]: > 100 µM (inactive)
GI50 [40]: > 100 µM (inactive)
GI50 [41]: > 100 µM (inactive)
GI50 [42]: > 100 µM (inactive)
GI50 [43]: > 100 µM (inactive)
GI50 [44]: > 100 µM (inactive)
GI50 [45]: > 100 µM (inactive)
GI50 [46]: > 100 µM (inactive)
GI50 [47]: > 100 µM (inactive)
GI50 [48]: > 100 µM (inactive)
GI50 [49]: > 100 µM (inactive)
GI50 [50]: > 100 µM (inactive)
GI50 [51]: > 100 µM (inactive)
GI50 [52]: > 100 µM (inactive)
GI50 [53]: > 100 µM (inactive)
GI50 [54]: > 100 µM (inactive)
GI50 [55]: > 100 µM (inactive)
GI50 [56]: > 100 µM (inactive)

CCOC(=O)NC(Nc1ccc(S(=O)(=O)Nc2nc(C)cc(C)n2)cc1)(C(=O)OCC)C(F)(F)F (centres undefined)
GI50 [1]: > 100 µM (inactive)
GI50 [2]: > 100 µM (inactive)
GI50 [3]: > 100 µM (inactive)
GI50 [4]: > 100 µM (inactive)
GI50 [5]: > 100 µM (inactive)
GI50 [6]: > 100 µM (inactive)
GI50 [7]: > 100 µM (inactive)
GI50 [8]: > 100 µM (inactive)
GI50 [9]: > 100 µM (inactive)
GI50 [10]: > 100 µM (inactive)
GI50 [57]: > 100 µM (inactive)
GI50 [11]: > 100 µM (inactive)
GI50 [12]: > 100 µM
GI50 [13]: > 100 µM (inactive)
GI50 [14]: > 100 µM (inactive)
GI50 [15]: > 100 µM (inactive)
GI50 [16]: > 100 µM (inactive)
GI50 [17]: > 100 µM (inactive)
GI50 [18]: > 100 µM (inactive)
GI50 [19]: > 100 µM (inactive)
GI50 [20]: > 100 µM (inactive)
GI50 [21]: > 100 µM (inactive)
GI50 [22]: > 100 µM (inactive)
GI50 [23]: > 100 µM (inactive)
GI50 [24]: > 100 µM (inactive)
GI50 [25]: > 100 µM (inactive)
GI50 [26]: > 100 µM (inactive)
GI50 [27]: > 100 µM (inactive)
GI50 [28]: > 100 µM (inactive)
GI50 [29]: > 100 µM (inactive)
GI50 [30]: > 100 µM (inactive)
GI50 [31]: > 100 µM (inactive)
GI50 [33]: > 100 µM (inactive)
GI50 [34]: > 100 µM (inactive)
GI50 [35]: > 100 µM (inactive)
GI50 [36]: > 100 µM (inactive)
GI50 [37]: > 100 µM (inactive)
GI50 [38]: > 100 µM (inactive)
GI50 [39]: > 100 µM (inactive)
GI50 [40]: > 100 µM (inactive)
GI50 [41]: > 100 µM (inactive)
GI50 [42]: > 100 µM (inactive)
GI50 [43]: > 100 µM (inactive)
GI50 [44]: > 100 µM (inactive)
GI50 [45]: > 100 µM (inactive)
GI50 [46]: > 100 µM (inactive)
GI50 [47]: > 100 µM (inactive)
GI50 [48]: > 100 µM (inactive)
GI50 [49]: > 100 µM (inactive)
GI50 [58]: 5.33 µM (inactive)
GI50 [50]: > 100 µM (inactive)
GI50 [51]: > 100 µM (inactive)
GI50 [52]: 72.9 µM (inactive)
GI50 [53]: > 100 µM (inactive)
GI50 [55]: > 100 µM (inactive)
GI50 [56]: > 100 µM (inactive)

CC(C)(Sc1cc(C(C)(C)C)c(O)c(C(C)(C)C)c1)Sc1cc(C(C)(C)C)c(O)c(C(C)(C)C)c1 [PROBUCOL]
GI50 [1]: > 100 µM (inactive)
GI50 [2]: > 100 µM (inactive)
GI50 [3]: > 100 µM (inactive)
GI50 [4]: > 100 µM (inactive)
GI50 [5]: > 100 µM (inactive)
GI50 [6]: > 100 µM (inactive)
GI50 [7]: > 100 µM (inactive)
GI50 [8]: > 100 µM (inactive)
GI50 [9]: > 100 µM (inactive)
GI50 [10]: 4.57 µM (inactive)
GI50 [11]: > 100 µM (inactive)
GI50 [12]: > 100 µM
GI50 [13]: 1.49 µM (inactive)
GI50 [14]: > 100 µM (inactive)
GI50 [16]: > 100 µM (inactive)
GI50 [17]: > 100 µM (inactive)
GI50 [18]: > 100 µM (inactive)
GI50 [19]: 1.81 µM (inactive)
GI50 [20]: > 100 µM (inactive)
GI50 [21]: > 100 µM (inactive)
GI50 [22]: > 100 µM (inactive)
GI50 [23]: > 100 µM (inactive)
GI50 [24]: > 100 µM (inactive)
GI50 [25]: > 100 µM (inactive)
GI50 [26]: > 100 µM (inactive)
GI50 [28]: > 100 µM (inactive)
GI50 [30]: > 100 µM (inactive)
GI50 [31]: > 100 µM (inactive)
GI50 [59]: > 100 µM (inactive)
GI50 [32]: > 100 µM (inactive)
GI50 [34]: > 100 µM (inactive)
GI50 [35]: > 100 µM (inactive)
GI50 [36]: > 100 µM (inactive)
GI50 [37]: > 100 µM (inactive)
GI50 [38]: > 100 µM (inactive)
GI50 [39]: 79.6 µM (inactive)
GI50 [40]: 52.8 µM (inactive)
GI50 [41]: > 100 µM (inactive)
GI50 [42]: > 100 µM (inactive)
GI50 [43]: > 100 µM (inactive)
GI50 [44]: > 100 µM (inactive)
GI50 [45]: > 100 µM (inactive)
GI50 [46]: > 100 µM (inactive)
GI50 [47]: > 100 µM (inactive)
GI50 [48]: > 100 µM (inactive)
GI50 [49]: > 100 µM (inactive)
GI50 [50]: > 100 µM (inactive)
GI50 [51]: > 100 µM (inactive)
GI50 [52]: > 100 µM (inactive)
GI50 [53]: > 100 µM (inactive)
GI50 [54]: > 100 µM (inactive)
GI50 [55]: > 100 µM (inactive)
GI50 [56]: > 100 µM (inactive)
